From ChEMBL document CHEMBL1201862, “PubChem BioAssay data set” (2004)
Activity calls are given as the source filed them.

Assays:
Protein skinhead-1 = target: T1, Protein skinhead-1 (Caenorhabditis elegans, UniProt P34707); format: functional
T1 sequence (P34707 whole entry): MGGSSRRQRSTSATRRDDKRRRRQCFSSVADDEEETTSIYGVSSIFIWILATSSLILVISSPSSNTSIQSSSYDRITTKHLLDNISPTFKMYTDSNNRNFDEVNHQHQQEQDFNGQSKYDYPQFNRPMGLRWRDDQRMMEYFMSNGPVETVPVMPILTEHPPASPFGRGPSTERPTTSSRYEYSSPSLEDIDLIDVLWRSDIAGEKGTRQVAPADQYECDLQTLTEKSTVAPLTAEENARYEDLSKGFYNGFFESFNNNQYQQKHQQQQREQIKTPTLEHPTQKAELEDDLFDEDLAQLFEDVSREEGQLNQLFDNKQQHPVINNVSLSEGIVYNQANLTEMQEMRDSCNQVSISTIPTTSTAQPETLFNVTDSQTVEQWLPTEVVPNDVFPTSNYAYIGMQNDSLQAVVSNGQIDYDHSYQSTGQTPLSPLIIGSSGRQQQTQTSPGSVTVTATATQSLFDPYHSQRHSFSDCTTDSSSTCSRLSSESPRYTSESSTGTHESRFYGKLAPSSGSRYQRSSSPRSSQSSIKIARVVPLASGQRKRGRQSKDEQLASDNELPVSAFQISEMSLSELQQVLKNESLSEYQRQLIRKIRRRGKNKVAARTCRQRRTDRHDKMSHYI

BJ [1] = assay: cytotoxicity toward BJ-TERT fibroblasts, dose response, cell-based, RAS-independent, luminescence (AID 1933); format: functional; conditions: Homo sapiens
BJ [2] = assay: cells; format: functional, cell-based; conditions: Homo sapiens
[3] = microbe, parasite or virus in culture; format: functional; conditions: Mycobacterium tuberculosis
BJ [4] = assay: cytotoxicity toward BJ-TERT-LT-ST fibroblasts, dose response, cell-based, RAS-independent, luminescence (AID 1935); format: functional; conditions: Homo sapiens;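 note: BJ fibroblasts immortalized with TERT plus LT and ST oncogenes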
[5] = cytotoxicity toward DRD oncogenic fibroblasts, dose response, cell-based, non-viral oncogenic, luminescence (AID 1934); format: functional; conditions: Homo sapiens
[6] = target: T2, Replicative DNA helicase DnaB (Mycobacterium tuberculosis, UniProt P9WMR3); assay: DnaB intein splicing inhibitors, dose response, biochemical, cell-free fluorescence (AID 449749); format: functional
T2 sequence (P9WMR3 whole entry): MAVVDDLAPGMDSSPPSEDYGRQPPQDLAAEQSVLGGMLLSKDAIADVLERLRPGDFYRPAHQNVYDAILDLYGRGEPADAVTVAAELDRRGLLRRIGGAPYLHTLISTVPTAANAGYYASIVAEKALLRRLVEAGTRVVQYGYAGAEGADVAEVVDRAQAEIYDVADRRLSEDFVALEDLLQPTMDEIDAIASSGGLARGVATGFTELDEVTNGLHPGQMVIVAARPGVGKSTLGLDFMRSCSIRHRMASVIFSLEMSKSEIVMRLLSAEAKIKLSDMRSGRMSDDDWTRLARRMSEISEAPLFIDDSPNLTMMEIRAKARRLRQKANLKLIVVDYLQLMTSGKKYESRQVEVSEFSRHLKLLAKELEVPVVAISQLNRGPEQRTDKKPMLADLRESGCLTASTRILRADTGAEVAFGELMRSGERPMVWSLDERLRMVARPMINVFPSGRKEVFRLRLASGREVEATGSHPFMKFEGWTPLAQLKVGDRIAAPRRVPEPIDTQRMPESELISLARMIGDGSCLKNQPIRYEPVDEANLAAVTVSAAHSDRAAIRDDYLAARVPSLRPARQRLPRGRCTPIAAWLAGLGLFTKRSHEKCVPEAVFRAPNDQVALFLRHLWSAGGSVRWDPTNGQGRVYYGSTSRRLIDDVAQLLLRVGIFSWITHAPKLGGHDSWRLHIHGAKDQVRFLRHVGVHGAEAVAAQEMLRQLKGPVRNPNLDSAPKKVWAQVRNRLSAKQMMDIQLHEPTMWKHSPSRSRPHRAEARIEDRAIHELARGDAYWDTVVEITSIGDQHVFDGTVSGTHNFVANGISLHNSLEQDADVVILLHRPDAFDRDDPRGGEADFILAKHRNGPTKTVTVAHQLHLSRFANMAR

Protein RecA = target: T3, Protein RecA (Mycobacterium tuberculosis, UniProt P9WHJ3); assay: Fluorescence Cell-Free Homogeneous Dose Retest to Identify Inhibitors of RecA-Intein Splicing Activity. [Related pubchem assays (depositor defined):AID2097, AID2223, AID489010, AID492950]; format: functional
T3 sequence (P9WHJ3 whole entry): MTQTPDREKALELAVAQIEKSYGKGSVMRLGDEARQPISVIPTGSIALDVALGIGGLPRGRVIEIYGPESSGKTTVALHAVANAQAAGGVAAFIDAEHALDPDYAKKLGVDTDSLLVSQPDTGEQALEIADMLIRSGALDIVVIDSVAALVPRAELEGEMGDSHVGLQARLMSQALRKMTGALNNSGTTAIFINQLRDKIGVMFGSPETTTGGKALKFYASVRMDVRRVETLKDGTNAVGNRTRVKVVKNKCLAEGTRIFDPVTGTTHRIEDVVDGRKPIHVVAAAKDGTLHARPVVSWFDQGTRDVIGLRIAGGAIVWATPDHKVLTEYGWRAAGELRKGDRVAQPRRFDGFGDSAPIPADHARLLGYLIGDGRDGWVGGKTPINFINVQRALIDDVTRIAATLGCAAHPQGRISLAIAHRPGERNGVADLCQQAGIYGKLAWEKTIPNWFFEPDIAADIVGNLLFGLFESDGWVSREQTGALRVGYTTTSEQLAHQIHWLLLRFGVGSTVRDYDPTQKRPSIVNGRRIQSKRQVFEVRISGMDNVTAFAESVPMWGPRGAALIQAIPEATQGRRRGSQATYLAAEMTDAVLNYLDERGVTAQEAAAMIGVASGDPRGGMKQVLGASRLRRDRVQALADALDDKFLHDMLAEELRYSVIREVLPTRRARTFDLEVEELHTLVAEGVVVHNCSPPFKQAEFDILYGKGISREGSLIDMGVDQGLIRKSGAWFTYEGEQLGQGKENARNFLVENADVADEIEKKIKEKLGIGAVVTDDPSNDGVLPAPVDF

[7] = target: T4, Calpain-2 catalytic subunit (Sus scrofa, UniProt P43367); assay: pig calpain II inhibitor potency, dose response, biochemical, fluorogenic peptide substrate (AID 1420); format: functional
T4 sequence (P43367 whole entry): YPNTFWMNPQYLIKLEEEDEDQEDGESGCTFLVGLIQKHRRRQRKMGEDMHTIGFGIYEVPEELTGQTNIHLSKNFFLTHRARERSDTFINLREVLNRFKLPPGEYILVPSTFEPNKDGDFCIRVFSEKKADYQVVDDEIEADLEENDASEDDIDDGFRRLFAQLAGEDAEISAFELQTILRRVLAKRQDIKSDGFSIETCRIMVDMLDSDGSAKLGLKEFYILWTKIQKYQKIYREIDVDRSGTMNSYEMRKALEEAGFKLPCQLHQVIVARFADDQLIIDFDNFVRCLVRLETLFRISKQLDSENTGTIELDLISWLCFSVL

[8] = inhibitors of intracellular T. cruzi replication, confirmation, NIH3T3 host cells, beta-gal luminescence (AID 2044); format: functional, cell-based;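 note: intracellular parasites grown in NIH/3T3 mouse fibroblasts as host cells; luminescent beta-galactosidase reporter signal from transgenic T. cruzi replicating inside host cells; inhibitors lower the luminescence signal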
[9] = cytotoxicity toward NIH3T3 fibroblasts, dose response, counter-screen, cell-based, ATP luminescence, mouse fibroblasts (AID 2010); format: functional;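 note: cells exposed to compound for about 90 hours before reading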
Leucine aminopeptidase = target: T5, Leucine aminopeptidase (Plasmodium falciparum 3D7, UniProt Q8IL11); assay: P. falciparum M17LAP inhibitors, primary screen, biochemical, fluorogenic H-Leu-NHMec substrate, 1536-well (AID 1619); format: functional
T5 sequence (Q8IL11 whole entry): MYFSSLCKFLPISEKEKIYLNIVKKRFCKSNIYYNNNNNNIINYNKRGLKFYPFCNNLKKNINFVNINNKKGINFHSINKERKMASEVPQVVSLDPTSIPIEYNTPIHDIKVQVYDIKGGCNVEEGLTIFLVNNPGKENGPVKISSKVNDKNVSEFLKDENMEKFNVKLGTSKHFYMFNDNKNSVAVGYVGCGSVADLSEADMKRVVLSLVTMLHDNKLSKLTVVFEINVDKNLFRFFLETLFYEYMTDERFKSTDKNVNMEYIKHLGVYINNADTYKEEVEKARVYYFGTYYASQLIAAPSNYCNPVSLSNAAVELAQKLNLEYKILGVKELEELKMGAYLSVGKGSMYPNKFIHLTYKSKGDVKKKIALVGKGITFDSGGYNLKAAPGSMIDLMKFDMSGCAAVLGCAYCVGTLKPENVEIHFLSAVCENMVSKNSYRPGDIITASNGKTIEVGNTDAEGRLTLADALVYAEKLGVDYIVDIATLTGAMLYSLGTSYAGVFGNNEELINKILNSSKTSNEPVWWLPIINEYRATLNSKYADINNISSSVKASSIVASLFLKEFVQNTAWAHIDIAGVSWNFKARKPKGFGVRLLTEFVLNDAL

[10] = target: T6, Corticotropin-releasing factor receptor 2/Corticotropin-releasing factor-binding protein (Homo sapiens, UniProt P24387+Q13324); assay: activators of CRF receptor 2 with binding protein – uHTS hits, confirmation (AID 602473); format: functional; conditions: read-out: EC50_Mean
T6 sequence (Q13324 whole entry): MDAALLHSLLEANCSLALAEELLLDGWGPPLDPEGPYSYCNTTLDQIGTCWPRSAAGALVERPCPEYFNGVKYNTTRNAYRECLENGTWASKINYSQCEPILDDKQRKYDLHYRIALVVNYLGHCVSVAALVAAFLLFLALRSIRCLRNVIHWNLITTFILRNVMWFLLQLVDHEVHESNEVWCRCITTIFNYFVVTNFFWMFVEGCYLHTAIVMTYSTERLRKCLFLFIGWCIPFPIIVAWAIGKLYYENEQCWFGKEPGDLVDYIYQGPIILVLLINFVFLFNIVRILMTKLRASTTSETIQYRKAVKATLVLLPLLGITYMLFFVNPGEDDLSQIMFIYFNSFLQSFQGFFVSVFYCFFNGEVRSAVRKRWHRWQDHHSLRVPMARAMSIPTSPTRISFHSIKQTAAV
T6 sequence (P24387 whole entry): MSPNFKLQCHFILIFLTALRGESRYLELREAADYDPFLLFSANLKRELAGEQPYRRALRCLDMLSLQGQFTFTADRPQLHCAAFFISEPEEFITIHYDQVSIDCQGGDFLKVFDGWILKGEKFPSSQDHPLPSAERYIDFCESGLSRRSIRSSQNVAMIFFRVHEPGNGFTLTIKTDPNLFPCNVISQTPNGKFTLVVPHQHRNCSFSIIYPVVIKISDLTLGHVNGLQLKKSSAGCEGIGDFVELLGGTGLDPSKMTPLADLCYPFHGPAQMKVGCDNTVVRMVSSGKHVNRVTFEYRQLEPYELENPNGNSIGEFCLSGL

[11] = inhibitors of HIV Env-driven cell fusion, dose response, cherry-pick (AID 652057); format: functional, cell-based
[12] = ZM109 Env clade C HIV-1 fusion inhibitors, dose response, HeLa effector, CEM target cells, luciferase, cherry-pick (AID 652058); format: functional, cell-based
[13] = inhibitors of clade B AD8 Env fusion, dose response, cell-based, cherry-pick (AID 652062); format: functional;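 note: luciferase signal from cell-cell fusion driven by HIV-1 clade B AD8 Env; potency is for inhibitors of fusion seen as a drop in luminescence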
[14] = P. falciparum Dd2 growth inhibitors, dose response, SYBR Green, cherry-picked samples (AID 1159567); format: functional, cell-based

O=C(CSc1nnnn1C1CCCCC1)Nc1cccc(NC(=O)c2ccco2)c1
IC50 (Protein skinhead-1): > 100 µM (inactive)

CN(Cc1ccc(Cl)s1)C(=O)CCl
EC50 (BJ [1]): 5.73 µM (active)
EC50 (BJ [2]): > 150 µM (inconclusive)
CC50 [3]: 11.7 µM (active)
EC50 (BJ [4]): > 150 µM (inconclusive)
EC50 [5]: 27.6 µM (active)
AC50 [6]: 50.5 µM (active)
EC50 (Protein RecA): 8.93 µM (active)

CC(C)CCN(C(=O)Nc1ccccc1)C(C)c1cccs1 (stereo unspecified)
IC50 [7]: 20.3 µM (not active)

CCN=C(S)N(CCc1c(C)[nH]c2ccc(Cl)cc12)Cc1ccco1
EC50 [8]: 2.81 µM (active)
IC50 [7]: 9.05 µM (not active)
EC50 [9]: > 60 µM (not active)

CCCC(=O)Nc1ccccc1NC(=O)CCC
IC50 [7]: > 50 µM (not active)

O=C(/C=C/Nc1ccc(F)c(F)c1)c1cccs1
IC50 (Protein skinhead-1): 18.2 µM (active)

CN(CC(=O)Nc1nc2ccccc2s1)S(=O)(=O)c1ccc(Cl)cc1
IC50 (Protein skinhead-1): > 100 µM (inactive)

Cc1ccc(Nc2nc(-c3cccs3)cs2)nc1
IC50 (Protein skinhead-1): 54.6 µM (inactive)

N#CC1=C(N)Oc2[nH]nc(-c3ccc(F)cc3)c2C1c1cccnc1 (stereo unspecified)
IC50 (Leucine aminopeptidase): 61.2 µM (active)
AC50 [6]: 7.8 µM (active)
EC50 (Protein RecA): 1.63 µM (active)

CN(C(=O)c1ccco1)c1nc(-c2ccccc2)cs1
IC50 (Protein skinhead-1): 100 µM (inactive)

Cc1cccc(N2CCN(C(=O)CN3C(=O)C4CC=CCC4C3=O)CC2)c1C (stereo unspecified)
IC50 [7]: > 50 µM (not active)

Cc1ccccc1-n1c(SCC(=O)O)nc2sc3c(c2c1=O)CCCC3
IC50 (Protein skinhead-1): > 100 µM (inactive)

C/C(=N\NC(=S)NC1CCCCC1)c1ccc(OC(F)F)cc1OC(F)F
IC50 [7]: 3.12 µM (not active)

CCOc1ccc(/C=N/OCC(=O)NC(c2ccccc2)c2ccccc2)cc1
IC50 [7]: 7.59 µM (not active)
EC50 [10]: > 53 µM (inactive)

C[C@H]1CN([C@@H](C)CO)C(=O)c2ccccc2-c2ccccc2CO[C@@H]1CN(C)C(=O)CCC(F)(F)F
AC50 [11]: 1.1 µM (active)
AC50 [12]: 1.48 µM (active)
AC50 [13]: 2.55 µM (active)

COc1ccccc1NC(=O)N[C@H]1C=C[C@@H](CC(=O)N[C@H](C)c2ccccc2)O[C@H]1CO
AC50 [11]: 4.72 µM (active)
AC50 [12]: 3.38 µM (active)
AC50 [13]: 11 µM (active)

CCSc1ncc(/C=N/Nc2ccccc2)n1C
IC50 (Protein skinhead-1): > 100 µM (inactive)

CCC(=O)N1C[C@H](C)[C@H](OC)CN(C)C(=O)c2cc(NC(=O)Nc3cccc(F)c3)ccc2OC[C@@H]1C
AC50 [14]: 9.89 µM (active)

O=C(C[C@H]1C[C@H]2c3cc(NC(=O)Nc4ccccc4)ccc3O[C@H]2[C@@H](CO)O1)NC1CCCC1
AC50 [14]: 6.1 µM (active)

O=C(C[C@@H]1CC[C@@H]2[C@H](COC[C@@H](O)CN2C(=O)c2ccccc2F)O1)NCc1ccc(-c2ccccc2)cc1
AC50 [14]: 6.33 µM (active)

COc1cccc(S(=O)(=O)N(C)C[C@@H]2Oc3ncc(C#Cc4ccc(C(F)(F)F)cc4)cc3C(=O)N([C@H](C)CO)C[C@@H]2C)c1
AC50 [14]: 4.11 µM (active)
